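Here, GI50 denotes the concentration required for 50% inhibition of growth. Definition used: TGI = concentration required for complete inhibition of growth.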
Key:
Assay in all cases: NCI-60 cell line screen, 384-well format
[1] = test system: T-47D breast
[2] = test system: HT29 colon
[3] = test system: TK-10 renal
[4] = test system: UACC-257 melanoma
[5] = test system: SF-539 CNS
[6] = test system: MOLT-4 leukemia
[7] = test system: U251 glioblastoma
[8] = test system: SF-268 CNS
[9] = test system: SK-MEL-2 melanoma
[10] = test system: CAKI-1 renal
[11] = test system: SF-295 CNS
[12] = test system: ACHN renal
[13] = test system: MDA-MB-468 breast
[14] = test system: HL-60(TB) leukemia
[15] = test system: NCI-H226 lung
[16] = test system: BT-549 breast
[17] = test system: SR leukemia
[18] = test system: HOP-62 NSCLC
[19] = test system: UO-31 renal
[20] = test system: M14 melanoma
[21] = test system: K-562 leukemia
[22] = test system: HOP-92 NSCLC
[23] = test system: HCT-15 colon
[24] = test system: EKVX NSCLC
[25] = test system: NCI/ADR-RES ovarian
[26] = test system: SK-OV-3 ovarian
[27] = test system: NCI-H23 lung
[28] = test system: NCI-H460 NSCLC
[29] = test system: DU-145 prostate
[30] = test system: MALME-3M melanoma
[31] = test system: SNB-19 CNS
[32] = test system: A498 renal
[33] = test system: COLO 205 colon
[34] = test system: RXF 393 renal
[35] = test system: 786-0 renal
[36] = test system: MDA-MB-231 breast
[37] = test system: LOX IMVI melanoma
[38] = test system: PC-3 prostate
[39] = test system: KM12 colon
[40] = test system: NCI-H322M lung
[41] = test system: NCI-H522 lung
[42] = test system: OVCAR-5 ovarian
[43] = test system: SK-MEL-28 melanoma
[44] = test system: A549 NSCLC
[45] = test system: HCT-116 colon
[46] = test system: OVCAR-3 ovarian
[47] = test system: IGROV1 ovarian
[48] = test system: SNB-75 CNS
[49] = test system: OVCAR-4 ovarian
[50] = test system: CCRF-CEM leukemia
[51] = test system: UACC-62 melanoma
[52] = test system: OVCAR-8 ovarian
[53] = test system: SK-MEL-5 melanoma
[54] = test system: SW-620 colon
[55] = test system: MCF7 breast
[56] = test system: HCC-2998 colon
[57] = test system: MDA-MB-435 melanoma
[58] = test system: RPMI-8226 leukemia
[59] = test system: SN12C renal

## CC#C/C(=N\OC[C@H]1COCCN1)c1ccc2ncnc(Nc3ccc(OCc4cccc(F)c4)c(Cl)c3)c2c1
[1]
  GI50: 1020 nM
  TGI: 2410 nM
[2]
  GI50: 1650 nM
  TGI: 3040 nM
[3]
  GI50: 404 nM
  TGI: 1880 nM
[4]
  GI50: 1520 nM
  TGI: 2850 nM
[5]
  GI50: 1590 nM
  TGI: 2950 nM
[6]
  GI50: 1440 nM
  TGI: 2760 nM
[7]
  GI50: 1880 nM
  TGI: 3310 nM
[8]
  GI50: 1620 nM
  TGI: 3000 nM
[9]
  GI50: 1310 nM
  TGI: 2580 nM
[10]
  GI50: 1120 nM
  TGI: 2340 nM
[11]
  GI50: 1820 nM
  TGI: 3220 nM
[12]
  GI50: 523 nM
  TGI: 1990 nM
[13]
  GI50: 55.7 nM
  TGI: 368 nM
[14]
  GI50: 2230 nM
  TGI: 3690 nM
[15]
  GI50: 1800 nM
  TGI: 3380 nM
[16]
  GI50: 1510 nM
  TGI: 2850 nM
[17]
  GI50: 393 nM
  TGI: 1230 nM
[18]
  GI50: 1620 nM
  TGI: 2980 nM
[19]
  GI50: 1520 nM
  TGI: 2860 nM
[20]
  GI50: 1950 nM
  TGI: 3370 nM
[21]
  GI50: 1700 nM
  TGI: 3090 nM
[22]
  GI50: 981 nM
  TGI: 2180 nM
[23]
  GI50: 1670 nM
  TGI: 3050 nM
[24]
  GI50: 1270 nM
  TGI: 2540 nM
[25]
  GI50: 1490 nM
  TGI: 4020 nM
[26]
  GI50: 246 nM
  TGI: 3420 nM
[27]
  GI50: 2020 nM
  TGI: 3980 nM
[28]
  GI50: 1750 nM
  TGI: 3180 nM
[29]
  GI50: 1160 nM
  TGI: 2420 nM
[30]
  GI50: 1760 nM
  TGI: 3150 nM
[31]
  GI50: 1670 nM
  TGI: 3040 nM
[32]
  GI50: 1130 nM
  TGI: 2340 nM
[33]
  GI50: 1960 nM
  TGI: 3380 nM
[34]
  GI50: 864 nM
  TGI: 2260 nM
[35]
  GI50: 1310 nM
  TGI: 2600 nM
[36]
  GI50: 1730 nM
  TGI: 3110 nM
[37]
  GI50: 1910 nM
  TGI: 3330 nM
[38]
  GI50: 1780 nM
  TGI: 3200 nM
[39]
  GI50: 1760 nM
  TGI: 3160 nM
[40]
  GI50: 102 nM
  TGI: 1230 nM
[41]
  GI50: 48.2 nM
  TGI: 1290 nM
[42]
  GI50: 1800 nM
  TGI: 3590 nM
[43]
  GI50: 1770 nM
  TGI: 3160 nM
[44]
  GI50: 1170 nM
  TGI: 2420 nM
[45]
  GI50: 1660 nM
  TGI: 3050 nM
[46]
  GI50: 1190 nM
  TGI: 2440 nM
[47]
  GI50: 261 nM
  TGI: 1870 nM
[48]
  GI50: 1870 nM
  TGI: 3270 nM
[49]
  GI50: 1280 nM
  TGI: 2550 nM
[50]
  GI50: 1500 nM
  TGI: 2840 nM
[51]
  GI50: 1650 nM
  TGI: 3020 nM
[52]
  GI50: 1370 nM
  TGI: 2670 nM
[53]
  GI50: 1510 nM
  TGI: 2850 nM
[54]
  GI50: 1880 nM
  TGI: 3300 nM
[55]
  GI50: 1500 nM
  TGI: 2850 nM
[56]
  GI50: 1540 nM
  TGI: 2890 nM
[57]
  GI50: 1890 nM
  TGI: 3310 nM
[58]
  GI50: 959 nM
  TGI: 2420 nM
[59]
  GI50: 1280 nM
  TGI: 2550 nM

From PubChem BioAssay (NCI)
